Source: patent publication US9365549B2, “Hepatitis C virus inhibitors” (THERAVANCE BIOPHARMA R&D IP, LLC, priority 2012, dated 2016)

Legend:
[1] = tested on: HCV genotype 1a replicon cell line; experiment: HCV Genotype 1a Replicon Assay; format: cell-based; conditions: Hepatitis C virus, Huh7.5 cell background, NS3-specific protease activity in lysates, 48 or 72 hours, read-out: pEC50 Genotype 1a (converted)
Experimental: Assay 2: HCV Genotype 1a Replicon Assay
The HCV genotype 1a replicon cell line was obtained from Apath LLC (APC89; Huh7.5 cell background). This subgenomic replicon contains the N-terminus of the HCV core protein fused to the neomycin-resistance selectable marker. The EMCV IRES lies downstream and drives expression of the non-structural proteins NS3-NS5B. Compound potencies were determined using the NS3-specific protease activity in lysates as a measurement of compound inhibition of replicon levels.
(§1) Cells were grown at 37° C. in a 5% CO2 humidified incubator in DMEM (Invitrogen) with 10% FBS (HyClone), 1×NEAA (Invitrogen), 1× Pen-Strep (Invitrogen), and 850 μg/mL G418 (Invitrogen). On day 1 of the assay, cells were plated at 15,000 cells/well in black 96-well tissue culture plates (Costar) in 200 μL media lacking G418. […] Compounds were initially diluted in DMSO and then diluted another 200× in media to bring the final DMSO concentration down to 0.5%. The cells were incubated with test compounds for 48 or 72 hours. At the end of the incubation period, media and compound were removed from the plates.
To determine the NS3-specific protease activity in lysates, the cells were lysed at room temperature in 50 μL/well of 50 mM Hepes pH 7.5, 150 mM NaCl, 15% Glycerol, 0.15% Triton X-100, 10 mM DTT for 20 minutes with shaking. 50 μL of an NS3/4a protease-specific FRET substrate (Anaspec RET S1 Cat#22991) was then added to the wells at a final concentration of 15 μM. The plates were incubated at 37° C. for 20 minutes, which corresponds to a timepoint at which the protease activity is still in the linear phase. Protease activity was determined by measuring fluorescence (Excitation: 340 nm; Emission: 509 nm).
To analyze the data, the fluorescence was plotted vs. the compound concentration, and EC50 values were determined from a 4-parameter robust fit model using GraphPad Prism software.

[2] = tested on: HCV genotype 1b replicon cell line; experiment: HCV Genotype 1b Replicon Assay; format: cell-based; conditions: Hepatitis C virus, Huh-7, Huh7 cell background, luciferase activity readout, 48 hours
Excerpt: Assay 1: HCV Genotype 1b Replicon Assay
The HCV genotype 1b replicon cell line was obtained from Apath LLC (Brooklyn, N.Y.) (APC144; Huh7 cell background). This subgenomic replicon contains the N-terminus of the HCV core protein fused to the neomycin-resistance selectable marker. The EMCV IRES lies downstream and drives expression of humanized Renilla luciferase fused to the non-structural proteins NS3-NS5B. This cell line was used to determine compound potency using the luciferase activity readout as a measurement of compound inhibition of replicon levels.
as §1, with “500” for “850”, “10,000” for “15,000”, “white” for “black”, “48” for “48 or 72”, “plates and the luciferase activity was determined using Promega Renilla-Glo reagents.” for “plates.”
To analyze the data, the luciferase activity was plotted vs. the compound concentration, and EC50 values were determined from a 4-parameter robust fit model with the GraphPad Prism software package (GraphPad Software, Inc., San Diego, Calif.). Results are expressed as the negative decadic logarithm of the EC50 value, pEC50.

COC(=O)N[C@H](C(=O)N1C[C@@H](C)C[C@H]1c1nc2c(ccc3cc(-c4cc(Cl)c(NC(=O)c5ccc(N6CCN(C(=O)C(C)(C)C)C[C@H]6C)nc5)cc4OC(F)(F)F)ccc32)[nH]1)C1CCOCC1 [Example 14, [(S)-2-((2S,4S)-2-{7-[4-({6-[(R)-4-(2,2-Dimethyl-propionyl)-2-methyl-piperazin-1-yl]-pyridine-3-carbonyl}-amino)-5-chloro-2-trifluoromethoxy-phenyl]-3H-naphtho[1,2-d]imidazol-2-yl}-4-methyl-pyrrolidin-1-yl)-2-oxo-1-(tetrahydropyran-4-yl)-ethyl]-carbamic acid methyl ester]
EC50 [1]: < 0.1 nM | EC50 [2]: < 0.1 nM

COC(=O)N[C@H](C(=O)N1C[C@@H](C)C[C@H]1c1nc2c(ccc3cc(-c4cc(Cl)c(NC(=O)c5ccc(N6CCN(C(=O)C(C)(C)CO)C[C@H]6C)nc5)cc4OC(F)(F)F)ccc32)[nH]1)C1CCOCC1 [Example 15, [(S)-2-((2S,4S)-2-{7-[4-({6-[(R)-4-(3-Hydroxy-2,2-dimethyl-propionyl)-2-methyl-piperazin-1-yl]-pyridine-3-carbonyl}-amino)-5-chloro-2-trifluoromethoxy-phenyl]-3H-naphtho[1,2-d]imidazol-2-yl}-4-methyl-pyrrolidin-1-yl)-2-oxo-1-(tetrahydropyran-4-yl)-ethyl]-carbamic acid methyl ester]
EC50 [1]: < 0.1 nM | EC50 [2]: < 0.1 nM
